# Measured values published in the supplement of paper PMC10307832.
# How the values were obtained:
# Experiment in all cases: relative viability (nuclei count vs DMSO), 5 days (fraction); higher = more cells survive
# [1] = compound: COc1cc(Nc2ncc3c(n2)-c2ccc(Cl)cc2C(c2c(F)cccc2OC)=NC3)ccc1C(=O)O [Alisertib]
# Method in brief: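 Lung cancer cell lines in 1536-well plates were kept overnight at 37 °C, then pinned with five library-drug doses (not always all listed) spaced by √10 on vehicle-anchored plates. After 5 days without medium change, cells were fixed, permeabilised and Hoechst-stained in one step, imaged at 4×, and nuclei were counted with MetaXpress. Viability is treated-well nuclei divided by vehicle-well nuclei, taken as the median over plates. Plates passed only with control CV below 25% and at least one doubling.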
# [2] = compound: COc1cc(Nc2ncc3c(n2)-c2ccc(Cl)cc2C(c2c(F)cccc2OC)=NC3)ccc1C(=O)O [Alisertib] + CC(C)C[C@H](NC(=O)[C@H](Cc1ccccc1)NC(=O)c1cnccn1)B(O)O [Bortezomib] (partner 0.002 µM)
# Method in brief: (§1)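 For relative viability, nuclei counts in treated wells were divided by those in vehicle wells. Lung cancer cell lines had been pin-tool dosed in 1536-well plates the day after seeding and cultured for 5 days, then fixed and stained in one step (final 0.05% Triton X-100, 1% formaldehyde, 1 ug/ml Hoechst) and imaged at 4×. Doses were one drug alone or a fixed anchor-drug dose plus five library-drug doses (not always all listed) in √10 steps, and values are duplicate-plate medians.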
# [3] = compound: COc1cc(Nc2ncc3c(n2)-c2ccc(Cl)cc2C(c2c(F)cccc2OC)=NC3)ccc1C(=O)O [Alisertib] + O=C(c1cc(Cc2n[nH]c(=O)c3ccccc23)ccc1F)N1CCN(C(=O)C2CC2)CC1 [Olaparib] (partner 8 µM)
# Method in brief: as §1
# [4] = compound: COc1cc(Nc2ncc3c(n2)-c2ccc(Cl)cc2C(c2c(F)cccc2OC)=NC3)ccc1C(=O)O [Alisertib] + CS(=O)(=O)CCNCc1ccc(-c2ccc3ncnc(Nc4ccc(OCc5cccc(F)c5)c(Cl)c4)c3c2)o1 [Lapatinib] (partner 2 µM)
# Method in brief: as §1
# [5] = compound: COc1cc(Nc2ncc3c(n2)-c2ccc(Cl)cc2C(c2c(F)cccc2OC)=NC3)ccc1C(=O)O [Alisertib] + COc1cc2c(Oc3ccc(NC(=O)C4(C(=O)Nc5ccc(F)cc5)CC4)cc3F)ccnc2cc1OCCCN1CCOCC1 [Foretinib] (partner 0.25 µM)
# Method in brief: as §1
# [6] = compound: COc1cc(Nc2ncc3c(n2)-c2ccc(Cl)cc2C(c2c(F)cccc2OC)=NC3)ccc1C(=O)O [Alisertib] + C[C@@H](Oc1cc(-c2cnn(C3CCNCC3)c2)cnc1N)c1c(Cl)ccc(F)c1Cl [Crizotinib] (partner 1 µM)
# Method in brief: as §1
# [7] = compound: COc1cc(Nc2ncc3c(n2)-c2ccc(Cl)cc2C(c2c(F)cccc2OC)=NC3)ccc1C(=O)O [Alisertib] + CC1(C)CCC(c2ccc(Cl)cc2)=C(CN2CCN(c3ccc(C(=O)NS(=O)(=O)c4ccc(N[C@H](CCN5CCOCC5)CSc5ccccc5)c(S(=O)(=O)C(F)(F)F)c4)cc3)CC2)C1 [Navitoclax] (partner 0.5 µM)
# Method in brief: as §1
# [8] = compound: COc1cc(Nc2ncc3c(n2)-c2ccc(Cl)cc2C(c2c(F)cccc2OC)=NC3)ccc1C(=O)O [Alisertib] + C[C@]1(O)C[C@@H](c2nc(-c3ccc4ccc(-c5ccccc5)nc4c3)c3c(N)nccn32)C1 [Linsitinib] (partner 1 µM)
# Method in brief: as §1
# [9] = compound: COc1cc(Nc2ncc3c(n2)-c2ccc(Cl)cc2C(c2c(F)cccc2OC)=NC3)ccc1C(=O)O [Alisertib] + Cc1nc(NC(=O)N2CCC[C@H]2C(N)=O)sc1-c1ccnc(C(C)(C)C(F)(F)F)c1 [Alpelisib] (partner 2 µM)
# Method in brief: as §1
# [10] = compound: COc1cc(Nc2ncc3c(n2)-c2ccc(Cl)cc2C(c2c(F)cccc2OC)=NC3)ccc1C(=O)O [Alisertib] + CS(=O)(=O)N1CCN(Cc2cc3nc(-c4cccc5[nH]ncc45)nc(N4CCOCC4)c3s2)CC1 [Pictilisib] (partner 1 µM)
# Method in brief: as §1
# [11] = compound: COc1cc(Nc2ncc3c(n2)-c2ccc(Cl)cc2C(c2c(F)cccc2OC)=NC3)ccc1C(=O)O [Alisertib] + N=C(N)NC(=N)NCCc1ccccc1 [Phenformin] (partner 250 µM)
# Method in brief: as §1
# [12] = compound: COc1cc(Nc2ncc3c(n2)-c2ccc(Cl)cc2C(c2c(F)cccc2OC)=NC3)ccc1C(=O)O [Alisertib] + Nc1ncn([C@H]2C[C@H](O)[C@@H](CO)O2)c(=O)n1 [Decitabine] (partner 2 µM)
# Method in brief: as §1
cell line,measurement,setting,value
Calu-6,relative viability,[1]; 0.005 µM,0.863
same,relative viability,[1]; 0.01581 µM,0.669
same,relative viability,[1]; 0.05 µM,0.319
same,relative viability,[1]; 0.1581 µM,0.196
same,relative viability,[1]; 0.5 µM,0.186
same,relative viability,[2]; first compound 0.005 µM,0.89
same,relative viability,[2]; first compound 0.01581 µM,0.57
same,relative viability,[2]; first compound 0.05 µM,0.316
same,relative viability,[2]; first compound 0.1581 µM,0.189
same,relative viability,[2]; first compound 0.5 µM,0.195
same,relative viability,[3]; first compound 0.005 µM,0.545
same,relative viability,[3]; first compound 0.01581 µM,0.385
same,relative viability,[3]; first compound 0.05 µM,0.237
same,relative viability,[3]; first compound 0.1581 µM,0.207
same,relative viability,[3]; first compound 0.5 µM,0.13
same,relative viability,[4]; first compound 0.005 µM,0.925
same,relative viability,[4]; first compound 0.01581 µM,0.541
same,relative viability,[4]; first compound 0.05 µM,0.382
same,relative viability,[4]; first compound 0.1581 µM,0.204
same,relative viability,[4]; first compound 0.5 µM,0.216
same,relative viability,[5]; first compound 0.005 µM,0.855
same,relative viability,[5]; first compound 0.01581 µM,0.599
same,relative viability,[5]; first compound 0.05 µM,0.228
same,relative viability,[5]; first compound 0.1581 µM,0.155
same,relative viability,[5]; first compound 0.5 µM,0.137
same,relative viability,[6]; first compound 0.005 µM,0.697
same,relative viability,[6]; first compound 0.01581 µM,0.334
same,relative viability,[6]; first compound 0.05 µM,0.204
same,relative viability,[6]; first compound 0.1581 µM,0.227
same,relative viability,[6]; first compound 0.5 µM,0.198
same,relative viability,[7]; first compound 0.005 µM,0.713
same,relative viability,[7]; first compound 0.01581 µM,0.377
same,relative viability,[7]; first compound 0.05 µM,0.13
same,relative viability,[7]; first compound 0.1581 µM,0.0974
same,relative viability,[7]; first compound 0.5 µM,0.107
same,relative viability,[8]; first compound 0.005 µM,0.733
same,relative viability,[8]; first compound 0.01581 µM,0.763
same,relative viability,[8]; first compound 0.05 µM,0.295
same,relative viability,[8]; first compound 0.1581 µM,0.129
same,relative viability,[8]; first compound 0.5 µM,0.162
same,relative viability,[9]; first compound 0.005 µM,0.771
same,relative viability,[9]; first compound 0.01581 µM,0.566
same,relative viability,[9]; first compound 0.05 µM,0.249
same,relative viability,[9]; first compound 0.1581 µM,0.188
same,relative viability,[9]; first compound 0.5 µM,0.191
same,relative viability,[10]; first compound 0.005 µM,0.726
same,relative viability,[10]; first compound 0.01581 µM,0.379
same,relative viability,[10]; first compound 0.05 µM,0.164
same,relative viability,[10]; first compound 0.1581 µM,0.171
same,relative viability,[10]; first compound 0.5 µM,0.153
A549,relative viability,[1]; 0.005 µM,0.877
same,relative viability,[1]; 0.01581 µM,0.633
same,relative viability,[1]; 0.05 µM,0.331
same,relative viability,[1]; 0.1581 µM,0.0691
same,relative viability,[1]; 0.5 µM,0.0535
same,relative viability,[3]; first compound 0.005 µM,0.317
same,relative viability,[3]; first compound 0.01581 µM,0.305
same,relative viability,[3]; first compound 0.05 µM,0.0782
same,relative viability,[3]; first compound 0.1581 µM,0.079
same,relative viability,[3]; first compound 0.5 µM,0.0413
same,relative viability,[4]; first compound 0.005 µM,0.812
same,relative viability,[4]; first compound 0.01581 µM,0.235
same,relative viability,[4]; first compound 0.05 µM,0.148
same,relative viability,[4]; first compound 0.1581 µM,0.0742
same,relative viability,[4]; first compound 0.5 µM,0.0628
same,relative viability,[5]; first compound 0.005 µM,0.977
same,relative viability,[5]; first compound 0.01581 µM,0.492
same,relative viability,[5]; first compound 0.05 µM,0.209
same,relative viability,[5]; first compound 0.1581 µM,0.0402
same,relative viability,[5]; first compound 0.5 µM,0.0374
same,relative viability,[6]; first compound 0.005 µM,0.611
same,relative viability,[6]; first compound 0.01581 µM,0.197
same,relative viability,[6]; first compound 0.05 µM,0.0682
same,relative viability,[6]; first compound 0.1581 µM,0.0571
same,relative viability,[6]; first compound 0.5 µM,0.0624
same,relative viability,[11]; first compound 0.005 µM,0.152
same,relative viability,[11]; first compound 0.01581 µM,0.0871
same,relative viability,[11]; first compound 0.05 µM,0.0611
same,relative viability,[11]; first compound 0.1581 µM,0.0311
same,relative viability,[11]; first compound 0.5 µM,0.0352
same,relative viability,[7]; first compound 0.005 µM,1.1
same,relative viability,[7]; first compound 0.01581 µM,0.642
same,relative viability,[7]; first compound 0.05 µM,0.215
same,relative viability,[7]; first compound 0.1581 µM,0.0692
same,relative viability,[7]; first compound 0.5 µM,0.0461
same,relative viability,[8]; first compound 0.005 µM,0.556
same,relative viability,[8]; first compound 0.01581 µM,0.414
same,relative viability,[8]; first compound 0.05 µM,0.139
same,relative viability,[8]; first compound 0.1581 µM,0.0745
same,relative viability,[8]; first compound 0.5 µM,0.0473
same,relative viability,[12]; first compound 0.005 µM,0.247
same,relative viability,[12]; first compound 0.01581 µM,0.207
same,relative viability,[12]; first compound 0.05 µM,0.125
same,relative viability,[12]; first compound 0.1581 µM,0.0435
same,relative viability,[12]; first compound 0.5 µM,0.0399
same,relative viability,[9]; first compound 0.005 µM,0.531
same,relative viability,[9]; first compound 0.01581 µM,0.333
same,relative viability,[9]; first compound 0.05 µM,0.144
same,relative viability,[9]; first compound 0.1581 µM,0.059
same,relative viability,[9]; first compound 0.5 µM,0.0557
same,relative viability,[10]; first compound 0.005 µM,0.423
same,relative viability,[10]; first compound 0.01581 µM,0.123
same,relative viability,[10]; first compound 0.05 µM,0.051
same,relative viability,[10]; first compound 0.1581 µM,0.0422
same,relative viability,[10]; first compound 0.5 µM,0.0618
